# Data reported in patent US12398151B2, “Sumo inhibitor compounds and uses thereof” (SUVALENT THERAPEUTICS, INC., priority 2019, dated 2025).
# Read-outs that look alike come from different tables or passages of the source.
# Key:
# SUMO E1 = target: T1, SUMO E1 (Homo sapiens, UniProt Q9UBT2); test: SUMO E1 inhibition: UBC9-SUMO1 conjugation by SDS gel electrophoresis; assay type: biochemical; conditions: read-out: SUMO E1 percent inhibition of adduct formation; for inhibition at 25 µM: 25 uM compound; for inhibition at 9 µM: 9 uM compound; for inhibition at 27 µM: 27 uM compound
# T1 sequence (Q9UBT2 1-640): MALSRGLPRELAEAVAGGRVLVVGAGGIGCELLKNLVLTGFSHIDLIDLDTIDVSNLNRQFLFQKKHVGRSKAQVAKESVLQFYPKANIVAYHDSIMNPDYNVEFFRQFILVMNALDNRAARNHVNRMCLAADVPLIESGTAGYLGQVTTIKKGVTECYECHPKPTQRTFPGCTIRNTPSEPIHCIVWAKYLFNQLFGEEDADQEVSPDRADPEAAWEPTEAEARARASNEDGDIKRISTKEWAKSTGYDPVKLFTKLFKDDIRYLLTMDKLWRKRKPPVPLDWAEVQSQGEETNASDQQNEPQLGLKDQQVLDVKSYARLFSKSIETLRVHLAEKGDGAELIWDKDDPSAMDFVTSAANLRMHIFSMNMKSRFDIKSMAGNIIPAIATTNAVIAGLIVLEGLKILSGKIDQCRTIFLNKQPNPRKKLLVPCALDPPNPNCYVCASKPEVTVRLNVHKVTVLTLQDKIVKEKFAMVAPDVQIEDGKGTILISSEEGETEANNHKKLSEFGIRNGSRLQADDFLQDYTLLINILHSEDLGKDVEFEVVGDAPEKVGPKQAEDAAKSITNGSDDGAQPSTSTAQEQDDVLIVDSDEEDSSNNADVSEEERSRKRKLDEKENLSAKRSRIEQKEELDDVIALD
# T1 sequence (Q9UBE0 1-346 partner): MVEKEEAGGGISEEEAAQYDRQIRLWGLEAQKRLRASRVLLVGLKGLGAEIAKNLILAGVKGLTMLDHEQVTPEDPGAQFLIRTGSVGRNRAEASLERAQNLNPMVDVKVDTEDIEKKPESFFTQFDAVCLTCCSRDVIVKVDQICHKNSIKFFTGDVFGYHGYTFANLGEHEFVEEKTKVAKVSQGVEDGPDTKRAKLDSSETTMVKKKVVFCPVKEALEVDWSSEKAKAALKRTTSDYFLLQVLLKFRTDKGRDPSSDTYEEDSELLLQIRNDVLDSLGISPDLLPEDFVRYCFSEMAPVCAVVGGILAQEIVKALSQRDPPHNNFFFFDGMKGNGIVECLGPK
# Method in brief: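 SUMO E1 was preincubated with compound for a set time, then UBC9, SUMO1 and ATP were added and incubated at 37 °C. After Laemmli quench, UBC9-SUMO1 adduct was resolved by SDS gel; percent inhibition from band intensity versus no-compound control, reported with compound concentration (μM) and preincubation time (min).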
# Atg7 = target: T2, Atg7 (Homo sapiens, UniProt O95352); test: Atg7 activating enzyme (E1) inhibition; assay type: biochemical; conditions: 25 uM compound, 60 min preincubation; read-out: Atg7 percent inhibition of adduct formation
# T2 sequence (O95352 1-703): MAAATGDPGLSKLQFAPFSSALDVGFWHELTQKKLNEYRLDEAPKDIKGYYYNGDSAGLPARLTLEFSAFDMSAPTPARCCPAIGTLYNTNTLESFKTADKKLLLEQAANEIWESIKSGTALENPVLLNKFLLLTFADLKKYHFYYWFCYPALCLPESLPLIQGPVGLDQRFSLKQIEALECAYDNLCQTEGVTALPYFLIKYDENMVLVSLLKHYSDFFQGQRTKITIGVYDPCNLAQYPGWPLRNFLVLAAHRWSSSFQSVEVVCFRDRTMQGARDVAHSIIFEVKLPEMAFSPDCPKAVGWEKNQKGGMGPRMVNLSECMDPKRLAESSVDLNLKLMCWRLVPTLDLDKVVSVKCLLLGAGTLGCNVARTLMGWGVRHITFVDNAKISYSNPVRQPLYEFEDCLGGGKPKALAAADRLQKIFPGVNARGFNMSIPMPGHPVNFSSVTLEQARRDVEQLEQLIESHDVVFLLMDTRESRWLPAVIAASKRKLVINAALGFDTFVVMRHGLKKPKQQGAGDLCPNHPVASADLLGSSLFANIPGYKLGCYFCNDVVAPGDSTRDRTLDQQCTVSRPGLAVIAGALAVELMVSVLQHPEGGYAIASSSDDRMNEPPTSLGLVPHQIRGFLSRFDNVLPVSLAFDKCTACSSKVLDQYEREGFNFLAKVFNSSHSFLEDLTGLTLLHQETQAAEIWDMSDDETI
# Method in brief: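 Compounds were assessed for their ability to inhibit the Atg7 activating enzyme (E1) following previously published methods and protocols. The E1 enzyme was preincubated with compound, and activity was expressed as the percent inhibition of adduct formation, reported together with the compound concentration in uM and the E1–compound preincubation time in minutes.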
Structure (SMILES),inhibition at 25 µM (Atg7),also measured
C=C(F)C(=O)N1Cc2sc(Cl)cc2[C@@H](c2ccccc2C)C1 [Compound 104],< 1%,inhibition at 25 µM (SUMO E1; 30 min preincubation): < 1%
C=CC(=O)N1Cc2sc(Cl)cc2[C@@H](C2=CN(C)CC=C2)C1 [Compound 145],< 1%,inhibition at 9 µM (SUMO E1; 30 min preincubation): < 1%
Cc1ccccc1[C@H]1CN(C(=O)/C=C/CN(C)C)Cc2sc(Cl)cc21 [Compound 99],< 1%,inhibition at 9 µM (SUMO E1; 20 min preincubation): < 1%
C=CC(=O)N1C[C@H](c2ccccc2)c2cc(Br)ccc2C1(C)C [Compound 67],< 1%,inhibition at 25 µM (SUMO E1; 60 min preincubation): < 1%
C=CC(=O)N1Cc2sc(Cl)cc2[C@@H](c2csc3ccccc23)C1 [Compound 154],< 1%,"inhibition at 18 µM (SUMO E1; 18 uM compound, 15 min preincubation): < 1%"
C=CC(=O)N[C@H]1Cc2sccc2[C@@H](c2ccccc2Cl)C1 [Compound 130],< 1%,"inhibition at 3 µM (SUMO E1; 3 uM compound, 30 min preincubation): < 1%"
C=CC(=O)N1Cc2sc(Cl)cc2[C@@H](c2ccccc2OCCN(C)C)C1 [Compound 151],< 1%,"inhibition at 6 µM (SUMO E1; 6 uM compound, 15 min preincubation): < 1%"
Cc1ccccc1[C@H]1CN(C(=O)[C@@H]2CO2)Cc2sc(Cl)cc21 [Compound 105],< 1%,inhibition at 27 µM (SUMO E1; 30 min preincubation): < 1%
C=CC(=O)N[C@H]1Cc2ccsc2[C@@H](c2ccccc2C)C1 [Compound 117],< 1%,inhibition at 27 µM (SUMO E1; 30 min preincubation): < 1%
C=CC(=O)N1Cc2sc(Cl)c(F)c2[C@@H](c2ccccc2C)C1 [Compound 150],< 1%,"inhibition at 22 µM (SUMO E1; 22 uM compound, 30 min preincubation): 50%"
C#CC(=O)N1Cc2sc(Cl)cc2[C@@H](c2ccccc2C)C1 [Compound 93],100%,inhibition at 9 µM (SUMO E1; 30 min preincubation): 95%

# The next lines start with results.
inhibition at 25 µM (Atg7),Structure (SMILES),also measured
< 1%,C=CC(=O)N1Cc2cc(Cl)ccc2[C@@H](c2ccncc2)C1 [Compound 92],"inhibition at 20 µM (SUMO E1; 20 uM compound, 60 min preincubation): 10%"
< 1%,C=CC(=O)N1Cc2cc(Cl)ccc2[C@@H](c2cccnc2)C1 [Compound 87],inhibition at 9 µM (SUMO E1; 30 min preincubation): < 1%
30%,C=CC(=O)N1Cc2cc(Br)ccc2[C@@H](c2ccccc2O)C1 [Compound 77],inhibition at 25 µM (SUMO E1; 60 min preincubation): 20%
< 1%,C=CC(=O)N1CCc2ncncc2C1 [Compound 5],inhibition at 25 µM (SUMO E1; 30 min preincubation): 10%
< 1%,C=CC(=O)N1Cc2cccc(C)c2[C@@H](c2ccccc2C)C1 [Compound 86],"inhibition at 10 µM (SUMO E1; 10 uM compound, 30 min preincubation): < 1%"
< 1%,C=CC(=O)N1Cc2ccccc2[C@@H](C(=O)OC)C1 [Compound 27],inhibition at 25 µM (SUMO E1; 60 min preincubation): < 1%
< 1%,C=CC(=O)Nc1cccc([C@H]2CN(C(=O)C=C)Cc3ccccc32)c1 [Compound 52],inhibition at 25 µM (SUMO E1; 60 min preincubation): 50%
< 1%,C=CC(=O)N1Cc2cc(Br)cnc2[C@@H](c2ccccc2)C1 [Compound 88],inhibition at 9 µM (SUMO E1; 30 min preincubation): < 1%
< 1%,C=CC(=O)N1Cc2cc(Cl)ccc2[C@@H](c2ccccn2)C1 [Compound 80],inhibition at 25 µM (SUMO E1; 30 min preincubation): 50%
< 1%,C=CC(=O)N1Cc2ccc(Br)cc2[C@@H](c2ccccc2C)C1 [Compound 58],inhibition at 25 µM (SUMO E1; 60 min preincubation): 95%
< 1%,C=CC(=O)N1CCc2ccccc2[C@@H](c2ccccc2)C1 [Compound 139],inhibition at 27 µM (SUMO E1; 30 min preincubation): < 1%
< 1%,C=CC(=O)N1Cc2sc(Cl)cc2[C@@H](c2ccccc2C)C1 [Compound 84],"inhibition at 2.5 µM (SUMO E1; 2.5 uM compound, 30 min preincubation): 90%"
